This test relates to CEBPB expression in LPS-stimulated THP-1 cells. The test is described as follows: Nascent RNA sequencing of LPS-stimulated THP-1 cells (CEBPB expression). The class given is cell-based. The conditions noted are these: 10 ng/mL LPS and 250 μM 2′FL. Here is the method:
THP-1 Cells were treated with 10 ng/mL LPS or 10 ng/mL LPS and 250 μM 2′FL and extracted for nascent RNAs at 30 min and 24 hours. The nascent RNAs were sequenced and analyzed as described in Azofeifa et al. (2018), Genome Res. 28: 334-344; the contents of which are expressly incorporated by reference herein.

For `CC1O[C@@H](OC2[C@H](O[C@H]3C(O)C(O)C(O)O[C@H]3CO)OC(CO)[C@H](O)[C@@H]2O)C(O)[C@@H](O)[C@@H]1O` (stereo partly drawn) [2′FL, 2′-fucosyllactose], the “CEBPB maximum enrichment score (nascent RNAs, 2′FL+LPS versus LPS alone)” value runs as follows: (30 min) 40; (24 hours) 20. In addition, the “CEBPB expression (nascent RNAs, 2′FL+LPS versus LPS alone)” value (both the 30 min and 24 hour time points) is “enhanced and upregulated”.

For the origin of these results see patent US20240165137A1, “METHODS FOR IMPROVING MUSCLE STRENGTH AND MOBILITY” (Intrinsic Medicine, Inc., priority 2020, published 2024).
